US9908890B2, “Selective inhibitors of constitutive androstane receptor” (ST. JUDE CHILDREN'S RESEARCH HOSPITAL, priority 2014, dated 2018)

What was measured:
[1] = target: T1, hCAR1 interaction with coregulators (SRC-1, TIF2, SMRTα, mNCoR) (Homo sapiens, UniProt Q14994); test: Mammalian two-hybrid assay (HEK293T cells); assay type: cell-based
T1 construct: expressed in transfected cells; host or cells: HEK293T
T1 sequence (Q14994 1-348 isoform Q14994-2): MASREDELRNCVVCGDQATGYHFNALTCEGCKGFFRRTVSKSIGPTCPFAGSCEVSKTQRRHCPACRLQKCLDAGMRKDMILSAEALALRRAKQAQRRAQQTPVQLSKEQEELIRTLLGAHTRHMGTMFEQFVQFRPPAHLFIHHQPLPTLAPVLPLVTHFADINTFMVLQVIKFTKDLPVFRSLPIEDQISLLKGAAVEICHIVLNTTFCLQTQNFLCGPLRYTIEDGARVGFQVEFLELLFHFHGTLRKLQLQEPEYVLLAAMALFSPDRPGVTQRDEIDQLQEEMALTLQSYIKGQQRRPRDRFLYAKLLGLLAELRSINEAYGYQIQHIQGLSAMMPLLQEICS
Excerpt: Briefly, mammalian two-hybrid assays were set up in HEK293T cells transfected with expression plasmids encoding VP16AD-hCAR1 fusion protein, GAL4DBD-co-activator fusion proteins, and the reporter plasmid pG5luc. […] Fold interaction represents pG5luc reporter activity normalized to the Renilla luciferase internal control. Data presented are the mean±SD of at least three independent transfections. *, p<0.001 compared to DMSO treatment within the indicated co-activator set. […] Briefly, mammalian two-hybrid assays were set up in HEK293T cells transfected with expression plasmids encoding VP16AD-hCAR1 fusion protein, GAL4DBD-co-repressor fusion proteins, and the reporter plasmid pG51luc. […] Fold interaction represents pG5luc reporter activity normalized to the Renilla luciferase internal control. Data presented are the mean±SD of at least three independent transfections. *, p<0.001 compared to DMSO treatment within the indicated co-repressor set.
The pACT-hCAR1, pBIND-coregulator peptide and pG5-luc were cotransfected into HEK293T cells. Renilla luciferase is constitutively expressed from the pBIND plasmids. The Dual-Glo Luciferase Assay (Promega) was used to measure pG5-luc luciferase activity. The relative luciferase activity was determined by normalizing firefly luciferase activity with Renilla luciferase activity.

[2] = test system: CAR binding to CYP2B6 and CYP3A4 promoter response elements; test: Chromatin immunoprecipitation (CAR / RNA polymerase II occupancy at promoters); assay type: cell-based, human
Protocol: FIG. 8B and FIG. 8C show the fold enrichment of CAR at CYP2B6-dNR3 and CYP2B6-PBREM sites, respectively, in the promoter region following the indicated treatment in human primary hepatocytes. […] Protein complexes were cross-linked and chromatin was immunoprecipitated by using anti-CAR antibody or control IgG. CAR occupancy at two separate CYP2B6 promoter regions (dNR3 and PBREM) was determined by performing quantitative RT-PCR assays. Fold-enrichment normalized to IgG control was plotted. Data represent the mean±SD of 3 experiments. *, p<0.01 comparing CITCO treatment to DMSO treatment.
FIG. 9A, FIG. 9B, and FIG. 9C show the fold enrichment of CAR at CYP2B6-dNR3, CYP3A4-XREM, and CYP2B6-dNR3 sites, respectively, in the promoter region following the indicated treatment in human primary hepatocytes or HepG2-hCAR1 cells, as indicated in the figures. Briefly, in FIG. 9A and FIG. […] 9C HepG2-hCAR1 stable cells were treated for […] with DMSO, 1 μM CITCO, 5 μM CINPA1, or 1 μM CITCO+5 μM CINPA1. Protein complexes were cross-linked and chromatin was immunoprecipitated by using anti-CAR antibody, anti-RNA polymerase II (RPol) antibody, or control IgG. CAR or RPol occupancy at the CYP2B6-dNR3 region and CYP3A4-XREM region was determined by performing quantitative RT-PCR assays. Fold-enrichment was normalized to IgG control. Data represent the mean±SD of 3 experiments. *, p<0.001 and #, p<0.01 comparing CITCO to DMSO samples. **, p<0.001 and ##, p<0.01 comparing CITCO+CINPA1 to CITCO samples.
ChIP was performed as described previously (Cherian, M. T., et al. (2012) J. Biol. Chem. 287, 23368-23380). Briefly, human hepatocytes in 6-well plates were maintained for 3-4 days in Williams E medium containing Primary Hepatocyte Maintenance Supplement (Life Technologies), with daily media changes. Nine wells were used for each treatment group. […] The HepG2-hCAR1 stable cells in FIG. 9 were treated with DMSO, 1 μM CITCO, 5 μM CINPA1, or 1 μM CITCO+5 μM CINPA1 for […]. In FIG. 9, the hepatocytes from donor 7 were treated with DMSO, 0.1 μM CITCO, 1 μM CINPA1, or 0.1 μM CITCO+1 μM CINPA1 for 45 min. Proteins were cross-linked with 1% formaldehyde for 10 min. Cell extracts were digested for 10 min with 50 units of micrococcal nuclease (New England Biolabs) at 37° C. and further sonicated to yield sheared DNA fragments having an average length of 200-1000 base pairs. The sonicated samples were pelleted by centrifugation, and the supernatant was diluted 3- to 5-fold with ChIP dilution buffer (0.01% SDS, 1.1% Triton X-100, 1.2 mM EDTA, 16.7 mM Tris-HCl, pH 8.1, 167 mM NaCl, and protease inhibitor cocktail). […] Quantitative RT-PCR assays were performed to determine the change in CAR occupancy at various sites of CAR binding. […]

[3] = human hepatocytes, 0.1 μM CITCO + 1 μM CINPA1, 45 min

Structure (SMILES): CCOC(=O)Nc1ccc2c(c1)N(C(=O)CN(CC)CC)c1ccccc1CC2 [CINPA1]
- corepressor (SMRTα, mNCoR) interaction with CAR-LBD ([1]; 5 μM CINPA1, 24 h): increased interaction
- coactivator (SRC-1, TIF-2) binding to CAR-LBD ([1]; 5 μM CINPA1, presence or absence of CITCO, 24 h): reduced SRC-1 and TIF-2 coactivator binding
- CITCO-mediated recruitment of CAR and RNA polymerase II to XREM (dNR3) of the CYP2B6 promoter [2, 3]: effectively reduced
- CITCO-mediated recruitment of CAR and RNA polymerase II to XREM of the CYP3A4 promoter [2, 3]: also reduced
- CAR recruitment to XREM (dNR3) of the CYP2B6 gene ([2]; human primary hepatocytes, 3 donors, overnight, 1 μM CITCO or 5 μM CINPA1): prevents CAR recruitment
